Assay results reported in paper PMC2860877 (Bioorganic & medicinal chemistry, 2008).
pIC50: −log10 of the molar value.

How the values were obtained:
[1] = target: T1, epitope-tagged (histidine6) recombinant MKP-1 (Homo sapiens, UniProt P28562); assay: MKP-1 phosphatase inhibition; assay type: biochemical
T1 sequence (P28562 1-367): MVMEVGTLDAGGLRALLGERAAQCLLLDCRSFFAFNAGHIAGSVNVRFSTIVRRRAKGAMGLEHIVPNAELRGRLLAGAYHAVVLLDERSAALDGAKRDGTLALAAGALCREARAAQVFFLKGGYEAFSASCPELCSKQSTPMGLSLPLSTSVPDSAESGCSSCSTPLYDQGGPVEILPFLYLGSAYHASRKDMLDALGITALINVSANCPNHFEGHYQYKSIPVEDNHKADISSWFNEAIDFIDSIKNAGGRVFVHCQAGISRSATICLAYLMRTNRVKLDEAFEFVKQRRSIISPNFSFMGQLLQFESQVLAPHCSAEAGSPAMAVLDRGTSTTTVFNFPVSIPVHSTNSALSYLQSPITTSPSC

[2] = target: T2, epitope-tagged (histidine6) catalytic domain of human recombinant Cdc25B (Homo sapiens, UniProt P30305); assay: Cdc25B phosphatase inhibition, catalytic domain; assay type: biochemical; conditions: for selectivity for Cdc25B as opposed to MKP-1 and MKP-3, in words: comparison of Cdc25B, MKP-1, MKP-3 assays; for Cdc25B activity in words: structure-activity discussion
T2 sequence (P30305 275-539 isoform P30305-3): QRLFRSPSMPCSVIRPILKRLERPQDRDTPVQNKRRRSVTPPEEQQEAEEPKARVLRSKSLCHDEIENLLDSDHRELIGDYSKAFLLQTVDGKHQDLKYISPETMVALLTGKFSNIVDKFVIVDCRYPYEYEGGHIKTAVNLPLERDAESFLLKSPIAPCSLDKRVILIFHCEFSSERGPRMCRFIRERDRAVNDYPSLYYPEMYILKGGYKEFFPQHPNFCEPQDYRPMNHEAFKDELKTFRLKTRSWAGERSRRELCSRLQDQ

Compound	pIC50 [1]	selectivity for Cdc25B as opposed to MKP-1 and MKP-3, in words [2]	Cdc25B activity in words [2]
O=C1c2cc3c(cc2C(=O)C2OC12)CCCC3 (centres unmarked) [Compound 8]	< 4.30		
O=C1C2=C(C(=O)c3ccccc31)S(=O)(=O)CCN2 [Compound 16]		moderately selective for Cdc25B	
O=C1C=C(NCCO)C(=O)c2ccccc21 [Compound 18]	< 4.30		complete loss of activity
O=C1C=CC(=O)C=C1 [Compound 10, 1,4-benzoquinone]	< 4.30		complete loss of enzyme activity
O=C1C2=C(C(=O)c3c(O)cccc31)S(=O)(=O)CCN2 [Compound 17]		moderately selective for Cdc25B	
O=C1c2ccccc2C(=O)c2ccccc21 [Compound 12, 9,10-anthraquinone]	< 4.30		
CC1=C(NCCO)C(=O)c2ccccc2C1=O [Compound 19]	< 4.30		complete loss of activity
CCOC1=CC(=O)C(=O)c2ccccc21 [Compound 20]		relatively non-selective	
